Source: patent US20120100157A1, “Biomarker and Method for Predicting Sensitivity to MET Inhibitors” (Van Andel Research Institute, priority 2010, published 2012)

Key:
X01-GB = assay: In vivo efficacy study, X01-GB GBM stem cell tumors; design: species or system mice; conditions: for tumor response: X01-GB tumors, erlotinib at 75 mg/kg
Description: (§1) All animal studies were approved by the IACUC of the Van Andel Research Institute. Each GBM cell line (5×10^5 cells in 100 μl PBS) was inoculated into both SCID and SCIDhgf mice subcutaneously. For V13 tumor line, tumors were transplanted into SCIDhgf mice at the flank to initiate tumor growth. Tumor size was measured with a caliper twice a week. When average tumor size reached 100 mm^3, mice were grouped (n=10) for treatment as indicated. Dosing with SGX523 and/or erlotinib was delivered once daily by oral gavage for 3 weeks. Vehicles used were 0.5% MC 400 with 0.05% Tween 80 (SGX523) and 0.5% (w/v) methyl cellulose (erlotinib). Tumor size was measured by a caliper twice a week. Body weight was measured once a week. All mice were sacrificed 24 h after last dose. To determine the effectiveness of treatment, the average tumor size of each group from the last measurement was analyzed with Student's t test (α=0.05).

U251M2 = assay: In vivo SGX523 and erlotinib therapeutic efficacy study, U251M2 xenograft; design: species or system mice; conditions: for tumor sensitivity to single agent: either drug alone
Description: as §1

U87M2 [1] = assay: In vivo SGX523 and erlotinib therapeutic efficacy study, U87M2 xenograft; design: species or system mice
Description: as §1

[2] = system: U251M2, T98G, and DBM2 cells; assay: HGF- and EGF-induced uPA activity in GBM cells without autocrine HGF; format: cell-based, human; conditions: for cross inhibition between MET and EGFR pathways (uPA activity): early time point in vitro
Description: (§2) Cells were grown overnight in DMEM/10% FBS. Drugs were dissolved in DMSO and serially diluted from stock concentrations into DMEM/10% FBS medium and added to the appropriate wells. Immediately after drug or reagent addition, HGF/SF (60 ng/ml) was added to all wells (with the exception of wells used as controls to calculate basal growth and uPA-plasmin activity levels). Twenty-four hours after drug and HGF/SF addition, plates were processed for the determination of plasmin activity as described previously (22). Wells were washed twice with DMEM (without phenol red; Life Technologies, Inc.), and 200 μl of reaction buffer [50% (v/v) 0.05 units/ml plasminogen in DMEM (without phenol red), 40% (v/v) 50 mM Tris buffer (pH 8.2), and 10% (v/v) 3 mM Chromozyme PL (Boehringer Mannheim) in 100 mM glycine solution] was added to each well. The plates were then incubated at 37° C., 5% CO2, for 4 h, at which time the absorbance was read on an automated spectrophotometric plate reader at the single wavelength of 405 nm.

DBM2 = assay: In vivo SGX523 and erlotinib therapeutic efficacy study, DBM2 xenograft; design: species or system mice
Description: as §1

V13 = assay: In vivo efficacy study, V13 GBM patient-derived xenograft; design: species or system mice; conditions: for tumor response: V13 in SCIDhgf mice, Erlotinib at 75 mg/kg
Description: The V13 GBM xenograft tumor line was generated from the primary tumor of a GBM patient upon surgical removal. The fresh tumor specimen was split into two pieces, one to be divided and implanted into 5 nude mice to propagate tumor growth and another piece to be directly digested with 0.05% trypin into single cells and grown in Neuro-basal medium with 10% FBS supplemented with EGF (20 ng/ml), bFGF (20 ng/ml) and 1% penicillin and streptomycin at 37° C. The tumors growing from nude mice were analyzed using FISH to compare them with the original tumor and were further transplanted into the host nude mice to maintain tumor growth in vivo. All studies involving human subjects and human tissues were approved by IRB committee of Van Andel Research Institute.
as §1

U118 [3] = assay: Serum HGF ELISA, U118 tumor-bearing mice; format: in vivo; conditions: end of efficacy study, mean ± SD
Description: (§3) At the end of the efficacy study, mouse serum was collected from each group and kept at −80° C. until use. For HGF expression level, 50 μl of serum was used for an ELISA test (R&D) according to the kit instructions. At least five samples were tested. Data represent mean±SD. Student's t test was used for statistical analysis.

U87M2 [4] = assay: Serum HGF ELISA, U87M2 tumor-bearing mice; format: in vivo; conditions: end of efficacy study, mean ± SD
Description: as §3

SF295 SQ1 = assay: Serum HGF ELISA, SF295 SQ1 tumor-bearing mice; format: in vivo; conditions: end of efficacy study, mean ± SD
Description: as §3

DBM2 cells = assay: HGF/EGF-induced downstream signaling, Western blot, DBM2; format: cell-based, human
Description: (§4) Cells were seeded in 10-cm dishes and grown until 80% confluent. After serum starvation overnight, cells were treated with or without SGX523 for 4 h with (or without) human HGF/SF or EGF (100 ng/ml) for 20 minutes at 37° C. The cells were washed twice with ice-cold 1×PBS, and whole cell lysates were prepared using RIPA buffer. The protein concentrations were determined by DC protein assay. Equal amounts of total protein (30 μg) from cell lysates were loaded on a 4-20% SDS-PAGE gel (invitrogen), transferred to a polyvinylidene difluoride (PVDF) membrane (Invitrogen), and detected using an ECL Western Blotting Detection System (GE Healthcare). Antibodies used were human Met (clone 25H2,), phospho-Met (Y1234/1235), human EGFR (clone D38B1), phosphor-EGFR(Y1068), AKT, phospho-AKT (S473), p42/44 MAPK, phospho-p42/44 MAPK (T202/Y204) (all from Cell Signaling Technology); β-actin (clone AC-15, Abcam); and anti-HGFantibody (Clone 7-2, provided by Dr. Brian Cao at Van Andel Research Institute). Secondary antibodies used were goat anti-rabbit IgG-HRP and goat anti-mouse IgG-HRP (Santa Cruz Biotechnology).

U118 [5] = assay: In vivo SGX523 and erlotinib therapeutic efficacy study, U118 xenograft; design: species or system mice; conditions: U118 subcutaneous; P<0.05 at all three doses
Description: as §1

U87M2 cells [6] = assay: uPA activity in HGF-autocrine U87M2 cells; format: cell-based, human; conditions: even when stimulated by EGF
Description: as §2

SF295SQ1 = assay: In vivo SGX523 and erlotinib therapeutic efficacy study, SF295SQ1 xenograft; design: species or system mice; conditions: SF295SQ1 subcutaneous; P<0.05 at all three doses
Description: as §1

U87M2 cells [7] = assay: HGF/EGF-induced downstream signaling, Western blot, U87M2; format: cell-based, human; conditions: 1-10 μM, regardless of additional HGF or EGF stimulation
Description: as §4

GBM = conditions: phase II clinical trials; cited from earlier work
recurrent GBM = conditions: clinical trials against recurrent GBM; cited from earlier work

Row | Compound | tumor response (X01-GB) | tumor sensitivity to single agent (U251M2) | cross inhibition between MET and EGFR pathways (uPA activity) [2] | tumor response (V13) | Serum HGF concentration (U118 [3]; U118, SCID mice) | Serum HGF concentration (U118 [3]; U118, SCIDhgf mice) | Serum HGF concentration (U87M2 [4]; U87M2, SCID mice) | Serum HGF concentration (U87M2 [4]; U87M2, SCIDhgf mice) | Serum HGF concentration (SF295 SQ1; SF295 SQ1, SCID mice) | Serum HGF concentration (SF295 SQ1; SF295 SQ1, SCIDhgf mice) | other results
1 | C#Cc1cccc(Nc2ncnc3cc(OCCOC)c(OCCOC)cc23)c1 [Erlotinib, erlotinib] | very sensitive | tolerate | no evidence of cross inhibition | induced tumor regression | 348.7 ± 172^ pg/ml | 2940 ± 746 pg/mL | 1277 ± 679 pg/mL | 8233 ± 3311 pg/mL | 858 ± 670 ^ pg/ml | 4000 ± 1132 pg/mL | p-EGFR in tumor lysates (X01-GB; X01-GB, Western blot with tumor lysates): significantly reduced; prolonged inhibition of U87M2 tumor growth (U87M2 [1]; FIG. 7: SGX523 90 or 120 mg/kg, erlotinib 150 mg/kg, p<0.05 for combination): failed; inhibition of EGF-induced uPA activity ([2]; within 24 hrs, U251M2, T98G, DBM2 cells): specifically blocked; tumor sensitivity to single agent (DBM2): somewhat sensitive; p-EGFR expression in tumor lysates (V13; V13, Western blot with tumor lysates): significantly reduced
2 | Cn1cc(-c2ccc3nnc(Sc4ccc5ncccc5c4)n3n2)cn1 [SGX523] | do not respond | tolerate | no evidence of cross inhibition | no response | 91 ± 85 ^5, 6 pg/ml | 4149 ± 1264 pg/mL | 152 ± 85 ^4 pg/ml | 6330 ± 2240 pg/mL | 262 ± 138 ^4 pg/ml | 4214 ± 1084 pg/mL | tumor growth response at increased dose (U251M2; 120 mg/kg): did not improve the responsive; tumor growth response (U251M2; SGX523 60 mg/kg): no response; tumor regrowth under continuous dosing (U87M2 [1]; U87M2, continuous dosing with SGX523): start to grow back after 2 weeks; tumor regression (U87M2 [1]; U87M2, first week after treatment started): induces U87M2 tumor regression; xenograft tumor sensitivity (U87M2 [1]; U87M2 subcutaneous, P<0.05 at all three doses): sensitive to SGX523 in a dose-dependent manner; inhibition of HGF-induced uPA activity ([2]; SGX523 at 0.1 μM after 24 h, U251M2, T98G, DBM2 cells): inhibited HGF-induced uPA activity; inhibition of EGF induced p-EGFR (DBM2 cells): did not inhibit; tumor growth response (DBM2; SGX523 60 mg/kg): no response; xenograft tumor sensitivity (U118 [5]): sensitive to SGX523 in a dose-dependent manner; inhibition of basal level of uPA activity (U87M2 cells [6]): did inhibit the basal level of uPA activity; xenograft tumor sensitivity (SF295SQ1): sensitive to SGX523 in a dose-dependent manner; inhibition of p-Met and downstream MAPK and AKT pathways (U87M2 cells [7]): can inhibit p-Met and downstream MAPK and AKT pathways
3 | COc1cc2nccc(Oc3ccc(NC(=O)C4(C(=O)Nc5ccc(F)cc5)CC4)cc3)c2cc1OC [XL184] |  |  |  |  |  |  |  |  |  |  | clinical efficacy (GBM): promising efficacy
4 | AMG102: a neutralizing antibody against HGF |  |  |  |  |  |  |  |  |  |  | clinical outcome (recurrent GBM): failed in clinical trials
